# In ChEMBL document CHEMBL1201862, “PubChem BioAssay data set” (2004):
# Calls of active or inactive are those of the source.
# Experiments:
# [1] = biological target: Lytic switch protein BZLF1 (Epstein-Barr virus (strain B95-8) (HHV-4) (Human herpesvirus 4), UniProt P03206); assay: EBV ZTA inhibitors, dose response, counter-screen for EBNA-1 inhibitor project, biochemical, fluorescence polarization, Epstein-Barr virus, 1536-well (AID 2377); parameters: species or system human gammaherpesvirus 4;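 also: fluorescence polarization of Cy5-labelled ZRE DNA probe bound by purified Zta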
# [2] = biological target: Epstein-Barr nuclear antigen 1 (Epstein-Barr virus (strain B95-8) (HHV-4) (Human herpesvirus 4), UniProt P03211); assay: EBNA-1 inhibitors, dose response, biochemical, fluorescence polarization, 1536-well (AID 2381); parameters: species or system human gammaherpesvirus 4;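 also: fluorescence polarization of a Cy5 DNA probe bound by EBNA-1 protein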
# [3] = biological target: T1, Nuclear receptor subfamily 0 group B member 1 (Homo sapiens, UniProt P51843); assay type: functional, cell-based;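 also: HEK293T cells transfected with SF-1 and DAX-1 plus StAR promoter luciferase reporter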
# T1 sequence (P51843 whole entry): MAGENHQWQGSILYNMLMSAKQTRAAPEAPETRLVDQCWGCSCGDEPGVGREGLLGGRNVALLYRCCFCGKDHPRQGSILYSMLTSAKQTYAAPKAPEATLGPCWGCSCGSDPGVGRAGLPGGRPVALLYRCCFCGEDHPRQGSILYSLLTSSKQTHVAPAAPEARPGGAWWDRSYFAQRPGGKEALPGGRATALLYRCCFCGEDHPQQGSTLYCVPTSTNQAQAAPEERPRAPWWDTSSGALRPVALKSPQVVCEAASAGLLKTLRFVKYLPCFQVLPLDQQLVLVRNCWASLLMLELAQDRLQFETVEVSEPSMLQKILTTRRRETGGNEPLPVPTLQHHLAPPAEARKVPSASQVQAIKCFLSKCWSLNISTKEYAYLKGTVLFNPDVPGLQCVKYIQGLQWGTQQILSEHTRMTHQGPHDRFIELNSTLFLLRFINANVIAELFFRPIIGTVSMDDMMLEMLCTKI
# cells = assay type: functional, cell-based
# BJ [4] = assay: cytotoxicity toward Ras-transformed BJeLR fibroblasts, dose response, cell-based, alamar blue fluorescence, cherrypicked samples (AID 2631); assay type: functional; conditions: Homo sapiens;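 also: confirmatory dose-response assay in RAS-dependent BJ fibroblasts engineered with TERT, LT and ST, with cytotoxicity read by fluorescence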
# BJ [5] = assay: cells; assay type: functional, cell-based; conditions: Homo sapiens
# [6] = Luminescence-based dose response cell-based high throughput screening assay for cytotoxic compounds using the IEC-6 intestinal epithelial cell line. [Related pubchem assays: 1858 (Summary AID.), 1825 (Counterscreen.), 1907 (Confirmation screen.)]; assay type: functional
# [7] = cytotoxicity toward DRD oncogenic fibroblasts, dose response, cell-based, non-viral oncogenic, luminescence (AID 1934); assay type: functional; conditions: Homo sapiens
# BJ [8] = assay: cytotoxicity toward BJ-TERT fibroblasts, dose response, cell-based, RAS-independent, luminescence (AID 1933); assay type: functional; conditions: Homo sapiens
# Protein RecA = biological target: T2, Protein RecA (Mycobacterium tuberculosis, UniProt P9WHJ3); assay: Fluorescence Cell-Free Homogeneous Dose Retest to Identify Inhibitors of RecA-Intein Splicing Activity. [Related pubchem assays (depositor defined):AID2097, AID2223, AID489010, AID492950]; assay type: functional
# T2 sequence (P9WHJ3 whole entry): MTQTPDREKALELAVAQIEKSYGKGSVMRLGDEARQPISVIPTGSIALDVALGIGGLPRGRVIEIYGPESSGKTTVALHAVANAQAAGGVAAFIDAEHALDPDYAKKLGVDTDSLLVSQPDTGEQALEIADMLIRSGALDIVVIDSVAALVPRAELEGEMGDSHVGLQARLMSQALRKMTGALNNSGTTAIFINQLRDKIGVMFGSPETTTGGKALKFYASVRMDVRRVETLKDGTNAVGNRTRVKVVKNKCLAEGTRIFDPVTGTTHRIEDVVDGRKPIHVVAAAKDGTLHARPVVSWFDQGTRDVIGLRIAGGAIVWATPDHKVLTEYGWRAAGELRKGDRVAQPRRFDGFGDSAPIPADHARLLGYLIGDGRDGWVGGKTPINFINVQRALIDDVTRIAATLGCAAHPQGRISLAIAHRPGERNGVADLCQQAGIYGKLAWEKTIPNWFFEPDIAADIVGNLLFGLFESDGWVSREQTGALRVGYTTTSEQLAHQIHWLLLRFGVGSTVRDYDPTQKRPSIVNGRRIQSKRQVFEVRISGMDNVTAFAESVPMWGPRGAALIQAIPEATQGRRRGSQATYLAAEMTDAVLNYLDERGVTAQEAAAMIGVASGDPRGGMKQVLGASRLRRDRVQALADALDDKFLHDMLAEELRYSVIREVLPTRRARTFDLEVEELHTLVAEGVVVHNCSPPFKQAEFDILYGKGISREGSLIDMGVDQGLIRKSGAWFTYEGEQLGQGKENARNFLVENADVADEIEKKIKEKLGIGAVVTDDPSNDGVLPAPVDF
# [9] = biological target: T3, Ubiquitin-conjugating enzyme E2 N (Homo sapiens, UniProt P61088); assay type: functional
# T3 sequence (P61088 whole entry): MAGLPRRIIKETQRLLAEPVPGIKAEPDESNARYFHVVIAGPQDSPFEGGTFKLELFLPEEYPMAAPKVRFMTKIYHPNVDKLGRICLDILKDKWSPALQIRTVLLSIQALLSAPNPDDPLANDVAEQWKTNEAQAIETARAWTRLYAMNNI
# [10] = biological target: T4, Replicative DNA helicase DnaB (Mycobacterium tuberculosis, UniProt P9WMR3); assay: DnaB intein splicing inhibitors, dose response, biochemical, cell-free fluorescence (AID 449749); assay type: functional
# T4 sequence (P9WMR3 whole entry): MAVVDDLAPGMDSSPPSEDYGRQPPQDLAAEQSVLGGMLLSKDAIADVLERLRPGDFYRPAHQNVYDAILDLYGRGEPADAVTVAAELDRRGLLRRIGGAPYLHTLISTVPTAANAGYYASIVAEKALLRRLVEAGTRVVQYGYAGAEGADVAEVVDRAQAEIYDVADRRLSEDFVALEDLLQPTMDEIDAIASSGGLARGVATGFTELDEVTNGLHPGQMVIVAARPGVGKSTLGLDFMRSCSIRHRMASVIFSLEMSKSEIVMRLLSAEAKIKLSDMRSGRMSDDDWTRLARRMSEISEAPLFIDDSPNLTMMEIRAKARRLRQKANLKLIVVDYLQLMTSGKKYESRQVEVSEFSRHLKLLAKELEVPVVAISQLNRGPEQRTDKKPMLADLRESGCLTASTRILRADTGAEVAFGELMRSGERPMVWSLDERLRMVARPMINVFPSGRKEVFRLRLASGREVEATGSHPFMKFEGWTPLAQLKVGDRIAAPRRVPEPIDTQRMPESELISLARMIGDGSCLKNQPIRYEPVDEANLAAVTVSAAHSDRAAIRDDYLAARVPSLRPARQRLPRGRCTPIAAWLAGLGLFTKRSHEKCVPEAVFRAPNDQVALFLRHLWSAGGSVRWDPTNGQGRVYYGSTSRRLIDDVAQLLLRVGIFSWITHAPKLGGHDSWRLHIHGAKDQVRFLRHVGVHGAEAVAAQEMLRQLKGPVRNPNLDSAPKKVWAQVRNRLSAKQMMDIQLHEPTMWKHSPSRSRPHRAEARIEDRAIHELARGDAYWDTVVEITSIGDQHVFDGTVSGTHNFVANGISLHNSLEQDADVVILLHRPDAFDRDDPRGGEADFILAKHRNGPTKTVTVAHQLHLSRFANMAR
# [11] = biological target: T5, High affinity choline transporter 1 (Homo sapiens, UniProt Q9GZV3); assay: CHT inhibitors, dose response, cell-based, 5-point CRC, membrane potential dye (AID 504840); assay type: functional
# T5 sequence (Q9GZV3 whole entry): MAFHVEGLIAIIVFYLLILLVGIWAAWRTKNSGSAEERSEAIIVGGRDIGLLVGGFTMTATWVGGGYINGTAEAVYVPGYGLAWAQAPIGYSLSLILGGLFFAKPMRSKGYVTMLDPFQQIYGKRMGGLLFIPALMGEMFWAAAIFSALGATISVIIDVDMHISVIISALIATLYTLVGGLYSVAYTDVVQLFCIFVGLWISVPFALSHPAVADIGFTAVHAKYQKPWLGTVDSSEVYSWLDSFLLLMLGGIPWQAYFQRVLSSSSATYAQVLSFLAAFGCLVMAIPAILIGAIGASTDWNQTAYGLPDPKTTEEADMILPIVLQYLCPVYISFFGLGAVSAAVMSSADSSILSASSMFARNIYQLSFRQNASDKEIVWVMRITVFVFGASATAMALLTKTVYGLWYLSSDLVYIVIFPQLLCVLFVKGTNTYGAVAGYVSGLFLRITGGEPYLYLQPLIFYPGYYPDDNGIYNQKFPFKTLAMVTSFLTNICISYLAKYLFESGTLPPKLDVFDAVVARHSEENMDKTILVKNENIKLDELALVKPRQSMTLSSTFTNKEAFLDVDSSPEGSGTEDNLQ
# Genome polyprotein = Genome polyprotein (dengue virus type 2, UniProt P29990); assay: Dengue-2 NS5 methyltransferase inhibitors, primary screen, biochemical, confirmation dose response (AID 588689); assay type: functional
# Vero = Vero cell cytotoxicity, cytotoxicity control for flavivirus capping enzyme inhibitors (AID 588742); assay type: functional; conditions: Chlorocebus sabaeus
# [12] = reduction of Shn3 3'UTR firefly luciferase signal, dose response, Schnurri-3 inhibitor project, cell-based, Clone20 osteoblasts, cherry-pick, set 2 (AID 720490); assay type: functional;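 also: actives lower the luminescence signal as inhibitors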
# Bcl-2-related protein A1 = biological target: T6, Bcl-2-related protein A1 (Mus musculus, UniProt Q07440); assay type: functional;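 also: confirmatory dose–response counterscreen on Bfl-1, used to check hits from a UBC13 polyubiquitin inhibitor campaign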
# T6 sequence (Q07440 whole entry): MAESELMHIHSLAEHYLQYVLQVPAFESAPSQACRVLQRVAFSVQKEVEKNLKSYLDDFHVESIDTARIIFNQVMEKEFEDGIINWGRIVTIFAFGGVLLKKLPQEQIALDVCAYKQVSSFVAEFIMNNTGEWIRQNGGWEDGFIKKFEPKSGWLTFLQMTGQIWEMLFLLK
# [13] = biological target: T5, High affinity choline transporter 1; assay: CHT inhibitors, dose response, cell-based, 10-point CRC, membrane potential dye (AID 588401); assay type: functional;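 also: membrane potential dye fluorescence of choline-evoked depolarization via CHT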
# [14] = reduction of endogenous Shn3 mRNA, dose response, qPCR, Clone20 cells, cherry-pick (AID 743415); assay type: functional, cell-based
# [15] = biological target: T3, Ubiquitin-conjugating enzyme E2 N; assay type: functional; remark: listed apart in the source
# [16] = Shn3 3'UTR reporter inhibitors, dose response, cell-based, Clone20 osteoblasts, firefly luciferase, cherry-picked (AID 624132); assay type: functional;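 also: firefly luciferase luminescence from reporter carrying the Shn3 3'UTR in osteoblasts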
# [17] = control 3'UTR Renilla luciferase suppression, dose response, counter-screen for Shn3 inhibitor project, cell-based, Clone20-Shn3RL, cherry-picked (AID 624133); assay type: functional
# [18] = inhibitors of control Renilla luciferase reporter, dose response, counter-screen for Shn3 3'UTR targeting project, Clone20-Shn3RL cells, dual-Glo, cherry-pick, set 2 (AID 720724); assay type: functional, cell-based; conditions: Dual-Go Shn3RL
# [19] = biological target: Potassium voltage-gated channel subfamily KQT member 2 (Rattus norvegicus, UniProt O88943, W236L); assay: KCNQ2 channel potentiators, dose response, mechanism study for KCNQ2 potentiator project, cell-based, automated electrophysiology (AID 2603); assay type: functional
# Sequence of Potassium voltage-gated channel subfamily KQT member 2 (O88943 whole entry W236L): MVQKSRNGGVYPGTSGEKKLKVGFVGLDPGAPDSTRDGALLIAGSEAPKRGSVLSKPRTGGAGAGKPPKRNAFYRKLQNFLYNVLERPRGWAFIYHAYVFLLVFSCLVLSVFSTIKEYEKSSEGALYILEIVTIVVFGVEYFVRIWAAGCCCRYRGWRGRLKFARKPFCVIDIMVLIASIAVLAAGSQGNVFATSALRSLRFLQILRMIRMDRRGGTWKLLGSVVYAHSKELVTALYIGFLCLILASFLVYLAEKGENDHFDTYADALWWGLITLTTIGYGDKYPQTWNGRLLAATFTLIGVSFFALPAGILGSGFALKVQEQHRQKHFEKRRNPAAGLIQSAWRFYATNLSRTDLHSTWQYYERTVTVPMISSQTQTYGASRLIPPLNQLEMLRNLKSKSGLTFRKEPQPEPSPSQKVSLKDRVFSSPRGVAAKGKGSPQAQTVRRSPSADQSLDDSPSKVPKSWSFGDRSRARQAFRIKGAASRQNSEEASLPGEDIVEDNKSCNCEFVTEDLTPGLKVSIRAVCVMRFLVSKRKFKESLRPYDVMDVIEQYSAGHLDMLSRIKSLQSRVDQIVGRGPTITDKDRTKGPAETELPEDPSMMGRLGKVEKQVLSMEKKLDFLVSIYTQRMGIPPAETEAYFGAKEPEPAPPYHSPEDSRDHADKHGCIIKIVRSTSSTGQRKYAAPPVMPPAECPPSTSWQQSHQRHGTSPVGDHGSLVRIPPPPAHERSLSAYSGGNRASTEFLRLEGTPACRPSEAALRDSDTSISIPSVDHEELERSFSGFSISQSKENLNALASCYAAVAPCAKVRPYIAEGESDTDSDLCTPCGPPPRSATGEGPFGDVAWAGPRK
# Sequence of Lytic switch protein BZLF1 (P03206 whole entry): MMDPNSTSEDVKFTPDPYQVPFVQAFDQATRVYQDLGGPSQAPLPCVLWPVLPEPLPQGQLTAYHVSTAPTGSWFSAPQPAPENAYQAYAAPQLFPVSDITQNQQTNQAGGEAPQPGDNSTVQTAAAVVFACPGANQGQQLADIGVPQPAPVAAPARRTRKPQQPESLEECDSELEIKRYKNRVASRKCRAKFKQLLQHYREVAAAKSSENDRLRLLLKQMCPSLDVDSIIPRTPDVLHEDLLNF
# Sequence of Epstein-Barr nuclear antigen 1 (P03211 whole entry): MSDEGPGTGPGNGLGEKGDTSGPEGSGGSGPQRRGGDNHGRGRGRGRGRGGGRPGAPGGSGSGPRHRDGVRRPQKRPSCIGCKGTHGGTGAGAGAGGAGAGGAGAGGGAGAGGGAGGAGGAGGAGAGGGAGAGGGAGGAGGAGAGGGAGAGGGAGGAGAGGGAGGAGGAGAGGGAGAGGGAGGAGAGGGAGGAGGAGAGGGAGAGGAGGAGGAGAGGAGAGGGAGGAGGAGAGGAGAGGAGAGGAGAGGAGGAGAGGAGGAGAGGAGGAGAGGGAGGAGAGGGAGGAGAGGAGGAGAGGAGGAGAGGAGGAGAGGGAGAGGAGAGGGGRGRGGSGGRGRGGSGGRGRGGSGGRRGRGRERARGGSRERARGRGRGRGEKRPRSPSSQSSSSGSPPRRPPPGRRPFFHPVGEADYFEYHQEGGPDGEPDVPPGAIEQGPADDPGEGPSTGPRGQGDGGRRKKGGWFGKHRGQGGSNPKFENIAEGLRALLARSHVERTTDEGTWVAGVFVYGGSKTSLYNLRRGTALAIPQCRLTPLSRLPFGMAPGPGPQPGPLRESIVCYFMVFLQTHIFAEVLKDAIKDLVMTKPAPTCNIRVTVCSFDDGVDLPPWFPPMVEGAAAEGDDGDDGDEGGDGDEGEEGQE
# Sequence of Genome polyprotein (P29990 2492-3391 limits assumed): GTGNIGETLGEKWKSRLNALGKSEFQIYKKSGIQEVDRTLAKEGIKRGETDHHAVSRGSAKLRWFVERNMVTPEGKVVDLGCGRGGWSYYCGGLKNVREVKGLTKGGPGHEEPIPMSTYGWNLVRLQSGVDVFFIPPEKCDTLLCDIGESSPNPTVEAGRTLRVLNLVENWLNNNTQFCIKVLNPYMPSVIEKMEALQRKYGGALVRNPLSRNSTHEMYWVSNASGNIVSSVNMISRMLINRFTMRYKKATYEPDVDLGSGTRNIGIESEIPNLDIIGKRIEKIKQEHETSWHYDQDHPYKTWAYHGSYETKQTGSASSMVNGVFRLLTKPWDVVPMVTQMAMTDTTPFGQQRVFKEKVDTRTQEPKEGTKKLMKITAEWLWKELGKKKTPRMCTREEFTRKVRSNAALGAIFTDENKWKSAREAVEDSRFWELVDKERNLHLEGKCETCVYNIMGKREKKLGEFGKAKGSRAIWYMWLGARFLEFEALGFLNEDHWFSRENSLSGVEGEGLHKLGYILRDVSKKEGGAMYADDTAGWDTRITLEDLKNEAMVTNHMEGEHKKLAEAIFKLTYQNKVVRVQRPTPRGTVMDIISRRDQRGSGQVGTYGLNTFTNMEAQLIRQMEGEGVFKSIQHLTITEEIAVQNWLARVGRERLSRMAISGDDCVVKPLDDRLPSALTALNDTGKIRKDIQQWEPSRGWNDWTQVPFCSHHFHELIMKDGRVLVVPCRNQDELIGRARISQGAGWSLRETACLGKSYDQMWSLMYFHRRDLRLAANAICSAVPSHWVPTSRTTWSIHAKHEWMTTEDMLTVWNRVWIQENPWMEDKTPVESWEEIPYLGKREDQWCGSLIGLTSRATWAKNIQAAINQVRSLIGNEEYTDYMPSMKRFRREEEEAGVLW
structure (smiles),measurement,setting,value
COc1ccc(-c2nonc2NC(=O)c2oc3ccc(F)cc3c2C)cc1OC,IC50,[1],> 111 µM (not active)
same,IC50,[2],16.4 µM (not active)
N#Cc1c(NC(=O)/C=C/c2ccco2)sc2c1CCCC2,IC50,[3],1.43 µM (active)
same,IC50,cells,> 67.6 µM (inactive)
same,EC50,BJ [4],< 0.104 µM (active)
same,EC50,BJ [5],1.48 µM (inconclusive)
same,IC50,[6],0.136 µM (active)
same,EC50,[7],0.278 µM (active)
same,EC50,BJ [8],0.181 µM (active)
CCCc1nnc(NC(=O)c2nc(S(=O)(=O)Cc3ccc(C)cc3)ncc2Cl)s1,EC50,Protein RecA,86.7 µM (active)
same,IC50,[9],14.8 µM (active)
same,AC50,[10],> 380 µM (inactive)
same,IC50,[11],2.59 µM (active)
same,IC50,Genome polyprotein,> 100 µM (active)
same,CC50,Vero,> 40 µM (active)
same,AC50,[12],2.05 µM (active)
same,IC50,Bcl-2-related protein A1,> 20 µM (inactive)
same,IC50,[13],3.36 µM (active)
same,AC50,[14],13.4 µM (active)
same,IC50,[15],10.5 µM (active)
same,AC50,[16],0.538 µM (active)
same,AC50,[17],12.5 µM (active)
same,AC50,[18],40.7 µM (active)
same,EC50,[19],3.02 µM (active)
